Measured values reported in patent publication US20090005385A1, “Treatment or Prevention of Cancer or Cardiovascular Disease with Methenyltetrahydrofolate Synthetases” (CORNELL RESEARCH FOUNDATION, INC., priority 2004, published 2009).

Key:
cell cultures = conditions: substrate for FPGS; cited from earlier work
mouse enzyme GARFT = mouse enzyme GARFT (Mus musculus, UniProt Q64737); conditions: read-out: Ki mouse GARFT; cited from earlier work
MTHFS = test: Inhibition of MTHFS-catalyzed conversion of 5-formylTHF to 5,10-methenylTHF (spectrophotometric assay); format: biochemical
Method: Tissue samples were sonicated four times for 15 s in a buffer containing 100 mM HEPES pH 7.0, 100 mM sodium chloride, 5 mM EDTA, 1% Tween-20. The solution was clarified by centrifugation. MTHFS activity was determined using a spectrophotometer by monitoring the appearance of 5,10-methenyltetrahydrofolate, which has an absorbance maximum at 355 nm. For a typical assay, 50 μL of clarified tissue supernatant was added to a quartz cuvette containing 100 μM (6S)-5-formylTHF, 1 mM Mg-ATP and 100 mM MES, pH 6.0 and the rate of 5,10-methenylTHF formation was quantified. Activity measurements were normalized to total protein that was quantified using the Lowry-Bensadoun method (Bensadoun et al., “Assay of Proteins in the Presence of Interfering Materials,” Anal Biochem 70:241-250 (1976), which is hereby incorporated by reference in its entirety).
The UV spectrum of purified rabbit liver MTHFS differs from the spectrum of recombinant mouse MTHFS (FIG. 4). Therefore, it was investigated whether rabbit liver MTHFS could be reconstituted with NADA resulting in a change in the UV spectrum of the protein. […]

MCF-7 cells [1] = test: Radiolabeled folate accumulation in cultured cells treated with catecholamines; format: cell-based, human; conditions: 12 h, 25 nM (6S)-[^3H]-5-formylTHF, 0-150 μM catecholamine
Method: (§1) Cell monolayers at 70% confluence in 6-well plates were labeled for 12 h in defined αMEM lacking folate and glycine, but supplemented with 25 nM (6S)-[^3H]5-formylTHF and 0, 25 μM, 50 μM, 75 μM, 100 μM, or 150 μM NADA, dopamine, or epinephrine. Cells were harvested by washing with 5 mL PBS, trypsinized, and pelleted by centrifugation and viable cells (determined by their ability to exclude trypan blue) were quantified. The cell pellets were lysed with 0.2 M ammonium hydroxide, and the intracellular tritium was quantified using a Beckman LS 8100 liquid scintillation counter.
Because the addition of NADA to the chase medium increased folate turnover rates in MCF-7 cells, the effects of various catecholamines on [^3H]folate accumulation was investigated. Cells were cultured for 12 h in defined αMEM medium containing 25 nM (6S)-[^3H]-5-formylTHF and various concentrations of NADA, dopamine, and epinephrine, and cellular [^3H]folate content was determined.

MCF-7 cells [2] = test: Folate turnover in cultured cells (pulse-chase); format: cell-based, human; conditions: 20 μM in chase medium
Method: Cell monolayers at 75% confluence were washed with PBS, then labeled for 12 h in defined αMEM lacking folate and glycine and supplemented with 25 nM (6S)-[^3H]5-formylTHF. For the chase, cell monolayers were washed with 10 ml of PBS, trypsinized, and pelleted by centrifugation. The cells were seeded in triplicate (1×10^6 cells) into 100 mm culture plates containing 10 ml of defined αMEM supplemented with 2 μM folic acid. Catecholamines (20 μM dopamine, NADA, and L-dopa) were prepared freshly and added to the chase media prior to the addition of labeled cells. Cells were harvested at defined time points, the medium was removed and the tritium in the medium was quantified. The cell monolayers were washed with PBS and lysed with 0.2 M ammonium hydroxide. Tritium remaining in the cells was quantified using a Beckman LS 8100 liquid scintillation counter.
Catecholamine availability may be rate limiting for MTHFS-catalyzed folate catabolism in MCF-7 cells. The effects of exogenous catecholamines on folate turnover rates were determined using pulse-chase analyses in MCF-7 cells. Folate turnover in MCF-7 cells labeled with [^3H]-5-formylTHF is biphasic, with an initial rapid phase of turnover followed by a slower phase (Anguera et al., J. Biol. Chem. 278:29856-29862 (2003), which is hereby incorporated by reference in its entirety). Addition of 20 μM NADA to the chase medium increased the magnitude of the rapid phase of folate turnover by 12% compared to untreated cells (FIG. 11A). […] To distinguish between these two mechanisms, 20 μM dopamine and L-dopa were added to the chase medium. Dopamine is the precursor of NADA, and both dopamine and L-dopa can function as oxidants following oxidation of their diphenolic ring generating dopamine-quinone or dopa-quinone (Rescigno et al., Biochemical Pharmacology 56:1089-1096 (1998); Graham, D. G. Mol. Pharmacol. 14:633-643 (1978), which are hereby incorporated by reference in their entirety). […] The addition of dopamine to the culture medium increased the magnitude of the rapid phase of folate turnover by only 4% relative to untreated cells (FIG. 11A). The minor effect of dopamine on folate turnover may reflect N-acetyltransferase-mediated dopamine acetylation that generating NADA. […] In summary, the pulse chase experiments indicate that NADA may be limiting for in vivo folate catabolism, and NADA may function specifically as the electron acceptor molecule for MTHFS-mediated folate catabolism.

MCF-7 cells [3] = test: Cell viability (trypan blue) after catecholamine treatment; format: cell-based, human; conditions: 12 h, various concentrations
Method: FIG. 12A-B show the effect of NADA, dopamine, and epinephrine on folate accumulation and cell viability in MCF-7 cells. MCF-7 cells were incubated with 25.0 nM (6S)-[^3H]5-formylTHF and various concentrations of NADA, dopamine, and epinephrine for 12 h, then viable cells were quantified using trypan blue staining. […] All values were normalized to cpm for untreated cells, and untreated cells were given an arbitrary value of 100%. […] Cell viability is expressed as the percent of viable cells divided by the total number of cells. Total [^3H]folate compounds were quantified in cell lysates by liquid scintillation. All values represent quadruplicate measures, and error bars are standard deviations of the mean.
as §1

[4] = target: T1, recombinant mouse MTHFS protein (Mus musculus, UniProt Q9D110); conditions: equilibrium binding
T1 sequence (Q9D110 1-203): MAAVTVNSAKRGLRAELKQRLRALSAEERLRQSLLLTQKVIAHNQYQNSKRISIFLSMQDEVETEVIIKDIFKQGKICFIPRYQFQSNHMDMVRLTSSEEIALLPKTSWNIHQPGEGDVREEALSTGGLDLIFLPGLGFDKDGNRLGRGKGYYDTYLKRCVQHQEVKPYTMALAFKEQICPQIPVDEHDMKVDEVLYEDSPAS

mouse enzyme GARFT, sequence (Q64737 whole entry): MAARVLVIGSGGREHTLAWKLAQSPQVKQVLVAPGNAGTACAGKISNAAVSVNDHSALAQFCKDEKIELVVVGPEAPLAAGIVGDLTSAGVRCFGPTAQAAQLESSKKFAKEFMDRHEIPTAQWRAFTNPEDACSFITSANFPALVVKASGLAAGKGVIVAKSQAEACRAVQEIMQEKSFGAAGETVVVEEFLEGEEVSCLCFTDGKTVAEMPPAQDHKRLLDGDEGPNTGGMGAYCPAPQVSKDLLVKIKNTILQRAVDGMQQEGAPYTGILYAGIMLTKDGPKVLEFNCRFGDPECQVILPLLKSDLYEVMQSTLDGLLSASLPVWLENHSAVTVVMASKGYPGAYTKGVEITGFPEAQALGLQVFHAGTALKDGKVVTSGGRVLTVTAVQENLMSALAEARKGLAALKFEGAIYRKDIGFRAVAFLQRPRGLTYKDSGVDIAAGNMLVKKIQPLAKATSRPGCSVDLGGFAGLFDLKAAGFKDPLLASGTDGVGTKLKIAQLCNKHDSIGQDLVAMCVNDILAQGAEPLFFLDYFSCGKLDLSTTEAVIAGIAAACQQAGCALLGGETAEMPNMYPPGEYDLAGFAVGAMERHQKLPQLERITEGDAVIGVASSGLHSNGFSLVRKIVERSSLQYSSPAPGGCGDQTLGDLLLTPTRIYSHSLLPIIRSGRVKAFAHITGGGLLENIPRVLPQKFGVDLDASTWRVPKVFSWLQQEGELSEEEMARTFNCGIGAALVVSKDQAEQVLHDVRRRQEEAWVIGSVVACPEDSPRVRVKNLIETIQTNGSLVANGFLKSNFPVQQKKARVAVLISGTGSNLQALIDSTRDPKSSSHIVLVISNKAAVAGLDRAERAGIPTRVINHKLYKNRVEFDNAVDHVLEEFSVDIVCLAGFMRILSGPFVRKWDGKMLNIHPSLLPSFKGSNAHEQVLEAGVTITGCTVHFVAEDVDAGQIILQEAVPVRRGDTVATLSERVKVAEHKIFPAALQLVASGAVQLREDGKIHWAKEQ

Nc1nc(N)c(CCCC(C=O)c2ccc(C(=O)N[C@@H](CCC(=O)O)C(=O)O)cc2)c(=O)[nH]1 (stereo partly shown) [10-formyl-DDACTHF, 10-formyl-5,10-dideaza-acyclicTHF]
accumulation in cell cultures (cell cultures): over 100 fold

Nc1nc2c(c(=O)[nH]1)C[C@@H](CCc1ccc(C(=O)N[C@@H](CCC(=O)O)C(=O)O)cc1)CN2 [DDATHF, 5,10-dideazatetrahydrofolate]
Ki (mouse enzyme GARFT): 6 nM

CC(=O)NCCc1ccc(O)c(O)c1 [NADA, N-acetyldopamine]
inhibition of MTHFS-catalyzed conversion of 5-formylTHF to 5,10-methenylTHF (MTHFS): did not inhibit | [^3H]folate accumulation (MCF-7 cells [1]): decreased [^3H]folate accumulation in a dose-dependent manner | increase in magnitude of the rapid phase of folate turnover compared to untreated cells (MCF-7 cells [2]): 12% | slow phase of folate turnover relative to untreated cells (MCF-7 cells [2]): did not change | cell viability (MCF-7 cells [3]): NADA-induced cell death

NCCc1ccc(O)c(O)c1 [dopamine]
binding to recombinant mouse MTHFS protein [4]: neither dopamine nor oxidized dopamine bind | [^3H]folate accumulation (MCF-7 cells [1]): Neither the addition of dopamine nor epinephrine to culture media impaired [^3H]folate accumulation | increase in magnitude of the rapid phase of folate turnover compared to untreated cells (MCF-7 cells [2]): 4%
